{"source": "patent US20240199624A1", "about": "“COMPOUNDS, COMPOSITIONS, AND METHODS” (CHDI Foundation, Inc., priority 2022, published 2024)", "key": {"[1]": {"assay": "P33 SPA counter assay (absence of enzyme)", "details": "interference with detection system", "procedure": "P33 SPA counter assay: This assay was used in the absence of enzyme to determine whether the test compound interferes with the detection system. Otherwise, the same protocol and assay buffer as in the main SPA assay were applied (25 mM HEPES pH=7.5, 150 mM KCl, 2 mM MgCl2, 2 mM GSH, 0.01% Tween-20) and instead of enzyme addition, assay buffer was added. Hydrolysis of substrate (γ-[^33P]-ATP, 0.1 nM; Hartmann Analytic, FF-301; and cold ATP, 10 μM) to a similar level as under enzymatic conditions was achieved by incubation at 50° C. for 4 days. Decay of [^33P] with a half-life of 25.4 days was corrected by increasing the concentration of the labelled nucleotide with the appropriate factor; all steps with radioactive ATP were conducted behind appropriate shielding. After addition of pre-treated ATP substrate (10 μL) to the compounds and addition of buffer (10 μL, instead of enzyme), 20 μL of a 1:2 mix of ammonium molybdate (20 mg/mL Ammonium molybdate in 2.4M HCl) and SPA beads (ProteinA SPA beads from Perkin Elmer Cat #RPNQ0019 at 7.5 mg/mL+1% azide) was added per well and incubated at RT for 2 min. Then, 40 μL of 7 M CsCl and 0.1 M citrate was added per well and incubated for 1 h at room temperature before measuring on the MicroBeta (top read mode, 1 min per well). For full plate processing, all reagents were transferred with a pipettor (Selma, CyBio) apart from the final reagent (CsCl+citrate) which was added with a dispenser (MultiFlo, BioTek). Data analysis during assay development was done with Prism GraphPad, and IC50 fitting for whole compound plates was done with the in-house software Aplus."}, "human MutSbeta [2]": {"target": "T1, human MutSbeta (Homo sapiens, UniProt P20585+P43246)", "T1 construct": "Msh2(1-934), Gene ID NP_000242.1; Msh3(1-1137), Gene ID J04810.1", "T1 sequence (P43246 whole entry)": "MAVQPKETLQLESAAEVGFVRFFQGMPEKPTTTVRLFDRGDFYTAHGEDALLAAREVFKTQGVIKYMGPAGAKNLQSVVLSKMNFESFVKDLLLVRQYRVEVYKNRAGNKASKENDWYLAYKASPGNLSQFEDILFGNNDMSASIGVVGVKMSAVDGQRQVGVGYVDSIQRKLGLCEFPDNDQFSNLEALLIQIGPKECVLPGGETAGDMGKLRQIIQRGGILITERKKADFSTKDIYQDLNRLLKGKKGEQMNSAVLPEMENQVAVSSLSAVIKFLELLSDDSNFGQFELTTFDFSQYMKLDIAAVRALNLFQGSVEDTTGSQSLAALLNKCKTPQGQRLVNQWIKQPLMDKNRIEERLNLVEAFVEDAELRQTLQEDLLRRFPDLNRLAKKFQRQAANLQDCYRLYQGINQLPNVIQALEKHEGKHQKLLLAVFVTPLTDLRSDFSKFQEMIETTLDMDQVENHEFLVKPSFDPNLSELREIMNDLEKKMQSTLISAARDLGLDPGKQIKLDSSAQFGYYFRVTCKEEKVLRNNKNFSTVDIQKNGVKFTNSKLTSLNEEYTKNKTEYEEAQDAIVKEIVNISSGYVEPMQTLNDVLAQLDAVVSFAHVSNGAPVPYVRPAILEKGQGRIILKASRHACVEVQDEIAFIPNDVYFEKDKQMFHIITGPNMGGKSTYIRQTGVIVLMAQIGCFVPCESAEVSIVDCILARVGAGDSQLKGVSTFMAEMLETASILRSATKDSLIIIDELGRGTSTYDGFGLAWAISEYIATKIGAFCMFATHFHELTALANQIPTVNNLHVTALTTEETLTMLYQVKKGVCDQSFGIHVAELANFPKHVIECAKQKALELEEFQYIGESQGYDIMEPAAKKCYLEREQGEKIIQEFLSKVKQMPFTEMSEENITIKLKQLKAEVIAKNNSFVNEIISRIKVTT", "T1 sequence (P20585 whole entry)": "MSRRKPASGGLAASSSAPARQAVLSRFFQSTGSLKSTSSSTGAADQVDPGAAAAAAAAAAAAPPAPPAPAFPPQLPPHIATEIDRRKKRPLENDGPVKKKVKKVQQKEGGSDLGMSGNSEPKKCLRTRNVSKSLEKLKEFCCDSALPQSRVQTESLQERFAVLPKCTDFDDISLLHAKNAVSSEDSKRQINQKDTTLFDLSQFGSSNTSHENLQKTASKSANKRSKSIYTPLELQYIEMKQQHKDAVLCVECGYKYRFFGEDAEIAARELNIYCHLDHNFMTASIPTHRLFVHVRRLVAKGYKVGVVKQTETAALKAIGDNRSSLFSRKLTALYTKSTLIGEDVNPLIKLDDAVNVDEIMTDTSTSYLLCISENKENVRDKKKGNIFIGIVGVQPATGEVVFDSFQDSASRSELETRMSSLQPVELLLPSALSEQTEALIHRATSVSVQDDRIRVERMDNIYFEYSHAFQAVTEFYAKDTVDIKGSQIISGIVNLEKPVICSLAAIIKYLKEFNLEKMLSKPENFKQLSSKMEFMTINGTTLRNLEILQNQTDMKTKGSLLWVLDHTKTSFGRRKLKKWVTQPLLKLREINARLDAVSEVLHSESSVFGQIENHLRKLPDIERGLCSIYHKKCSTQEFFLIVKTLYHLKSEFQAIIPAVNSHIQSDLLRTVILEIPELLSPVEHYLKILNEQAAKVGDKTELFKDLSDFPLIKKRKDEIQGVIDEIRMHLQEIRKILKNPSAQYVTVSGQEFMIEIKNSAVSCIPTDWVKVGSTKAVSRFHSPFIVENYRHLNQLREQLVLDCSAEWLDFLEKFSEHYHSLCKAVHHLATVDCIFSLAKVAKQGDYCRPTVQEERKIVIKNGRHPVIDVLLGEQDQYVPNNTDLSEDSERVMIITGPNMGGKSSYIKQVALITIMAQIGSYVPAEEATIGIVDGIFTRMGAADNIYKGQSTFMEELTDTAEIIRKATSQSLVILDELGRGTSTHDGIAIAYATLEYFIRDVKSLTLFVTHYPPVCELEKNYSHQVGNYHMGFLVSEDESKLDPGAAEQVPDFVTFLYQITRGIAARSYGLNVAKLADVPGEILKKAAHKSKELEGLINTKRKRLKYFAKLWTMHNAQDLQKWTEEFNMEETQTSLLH", "assay": "P33 SPA 1.1", "type": "biochemical", "details": "Table 5A; enzyme first added to compounds, then ATP", "procedure": "(§1) P33 SPA: Enzyme human MutSbeta (Msh2(1-934), Gene ID NP_000242.1, Msh3(1-1137), Gene ID J04810.1) and 22 bp biotin-labeled DNA containing a GT-mismatch (purchased from Curia Global, TOP 5′-[…]-3′; BOT 3′-AGTAGCTAGGC - - - CGAAGTCTACC-5′-Biotin) were pre-incubated at equimolar concentration for 15 min at room temperature (“RT”) in assay buffer (25 mM HEPES pH=7.5, 150 mM KCl, 2 mM MgCl2, 2 mM GSH, 0.01% Tween-20). ATP (10 μL, 2× final concentration of γ-[^33P]-ATP (final 0.1 nM; Hartmann Analytic, FF-301) and cold ATP (final 2 μM)) was added to compounds (400 nL spotted as concentration response in 100% DMSO into wells of an OptiPlate) and pre-incubated for 30 min at RT. Then, enzyme with DNA was added (10 μL, 2× final concentration of 7 nM) and incubated for 60 min at 37° C. in a total volume of 20 μL per well. Decay of [^33P] with a half-life of 25.4 days was corrected by increasing the concentration of the labelled nucleotide with the appropriate factor; all steps with radioactive ATP were conducted behind appropriate shielding. Then, 20 μL of a 1:2 mix of ammonium molybdate (20 mg/mL Ammonium molybdate in 2.4 M HCl) and SPA beads (ProteinA SPA beads from Perkin Elmer Cat #RPNQ0019 at 7.5 mg/mL+1% azide) was added per well and incubated at RT for 2 min. Then, 40 μL of 7 M CsCl and 0.1 M citrate was added per well and incubated for 20 h at RT before measuring on the MicroBeta (top read mode, 1 min per well). For full plate processing, all reagents were transferred with a pipettor (Selma, CyBio) apart from the final reagent (CsCl+citrate) which was added with a dispenser (MultiFlo, BioTek). Data analysis during assay development was done with Prism GraphPad.\nP33 SPA 11: For the SPA 1.1 assay, the addition of reagents was reversed, i.e. enzyme was first added to the compounds and pre-incubated followed by ATP addition; thus, the assay was aligned with ADP Glo 1.1 reagent addition order. The assay was repeated under similar conditions, and the results are shown below in Table 5B. It is contemplated the solubility of the compounds and/or varying test occasions may account for variability of assay results."}, "human MutSα": {"target": "T2, human MutSα (Homo sapiens, UniProt P43246+P52701)", "T2 construct": "Msh2(1-934), Gene ID NP_000242.1; Msh6(1-1360), Gene ID NP_001393725.1", "T2 sequence (P43246 whole entry)": "as the sequence (P43246 whole entry) above", "T2 sequence (P52701 whole entry)": "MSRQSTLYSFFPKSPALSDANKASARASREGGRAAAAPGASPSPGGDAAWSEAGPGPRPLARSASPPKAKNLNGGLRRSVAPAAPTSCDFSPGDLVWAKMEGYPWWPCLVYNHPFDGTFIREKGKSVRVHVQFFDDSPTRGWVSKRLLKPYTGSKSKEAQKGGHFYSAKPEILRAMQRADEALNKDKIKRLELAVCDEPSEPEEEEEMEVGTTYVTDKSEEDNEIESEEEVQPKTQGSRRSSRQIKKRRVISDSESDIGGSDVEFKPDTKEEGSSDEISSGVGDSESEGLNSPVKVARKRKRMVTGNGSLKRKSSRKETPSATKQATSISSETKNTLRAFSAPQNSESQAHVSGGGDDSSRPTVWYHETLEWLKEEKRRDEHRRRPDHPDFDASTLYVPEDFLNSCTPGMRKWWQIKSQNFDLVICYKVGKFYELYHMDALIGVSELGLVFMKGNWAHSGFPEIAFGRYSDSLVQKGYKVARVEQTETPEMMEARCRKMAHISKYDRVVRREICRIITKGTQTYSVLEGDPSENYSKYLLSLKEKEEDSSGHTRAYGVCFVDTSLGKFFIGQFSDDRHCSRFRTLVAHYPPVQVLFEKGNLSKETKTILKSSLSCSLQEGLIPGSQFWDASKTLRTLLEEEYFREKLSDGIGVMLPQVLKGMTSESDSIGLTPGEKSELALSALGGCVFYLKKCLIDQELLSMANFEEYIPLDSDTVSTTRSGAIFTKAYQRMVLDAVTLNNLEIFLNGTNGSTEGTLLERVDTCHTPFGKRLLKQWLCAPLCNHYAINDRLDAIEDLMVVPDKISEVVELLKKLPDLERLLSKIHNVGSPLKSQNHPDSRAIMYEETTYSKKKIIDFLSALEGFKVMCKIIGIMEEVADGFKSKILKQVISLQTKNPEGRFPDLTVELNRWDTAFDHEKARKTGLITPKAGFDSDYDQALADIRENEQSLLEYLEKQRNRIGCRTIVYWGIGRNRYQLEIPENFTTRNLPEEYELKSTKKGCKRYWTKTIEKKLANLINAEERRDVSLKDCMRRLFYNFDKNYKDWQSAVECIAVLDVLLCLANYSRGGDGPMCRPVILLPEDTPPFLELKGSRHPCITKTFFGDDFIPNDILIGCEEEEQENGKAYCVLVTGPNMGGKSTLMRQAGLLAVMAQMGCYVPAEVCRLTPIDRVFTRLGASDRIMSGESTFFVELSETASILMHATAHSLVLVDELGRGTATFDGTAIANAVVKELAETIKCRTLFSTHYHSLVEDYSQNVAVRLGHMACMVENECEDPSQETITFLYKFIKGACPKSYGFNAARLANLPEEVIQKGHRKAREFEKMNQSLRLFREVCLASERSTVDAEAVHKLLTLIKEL", "assay": "ADP Glo assay with MutSα (2.1)", "type": "biochemical", "details": "15 nM MutSα/DNA, 30 μM ATP", "procedure": "(§2) ADP Glo assay 2.1: Enzyme human MutSbeta (Msh2(1-934), Gene ID NP_000242.1, Msh3(1-1137), Gene ID J04810.1) with 22 bp biotin-labeled DNA containing a GT-mismatch (purchased from Curia Global, TOP 5′-[…]-3′; BOT 3′-AGTAGCTAGGC - - - CGAAGTCTACC-5′-Biotin) was pre-incubated in assay buffer (25 mM HEPES pH=7.5, 150 mM KCl, 5 mM MgCl2, 5 mM GSH, 0.1% Pluronic F-127, 0.2% Ovalbumin) to allow formation of the enzyme-DNA complex. Plates with spotted compounds in serial dilutions in DMSO (80 nL) were filled with ATP (2 μL, 10 μM final concentration) followed by an incubation of 30 min at RT. Then, enzyme was added (2 μL, 7 nM final concentration) and the reaction was allowed to proceed for 60 min at 37° C. After the ATPase reaction, the commercially available “ADP-Glo Reagent” was added (incubate 40 min at RT) to deplete remaining ATP via the activity of […]. Subsequently, the commercially available “Kinase Detection Reagent” converted ADP to ATP via the activity of PEP and Pyruvate kinase. The ATP was then converted into light by Ultra-Glo Luciferase. The obtained luminescence was proportional to the ADP concentration generated during the initial ATPase reaction. The luminescence signal was measured with an Envision reader, raw data were analyzed towards controls (full reaction=0% inhibition; no reaction in absence of enzyme=100% inhibition) and IC50 curves were analyzed with the inhouse software Aplus.\nADP Glo assay with MutSα (2.1): The ADP Glo assay version 2.1 with the enzyme human MutSα (Msh2(1-934), Gene ID NP_000242.1, Msh6(1-1360), Gene ID NP_001393725.1) was based on the same principle and protocol steps as the MutSβ assay. A 22 bp biotin-labeled DNA containing a GT-mismatch (purchased from Curia Global, TOP 5′-[…]-3′; BOT 3′-AGTAGCTAGGC - - - CGAAGTCTACC-5′-Biotin) was used for binding to MutSα. For this assay, concentrations of enzyme and ATP were optimized to 15 nM MutSα/DNA and 30 μM ATP."}, "human MutSbeta [3]": {"target": "T1, human MutSbeta", "assay": "ADP Glo assay 2.1", "type": "biochemical", "details": "10 μM ATP, 7 nM enzyme; buffer with 5 mM GSH, 0.2% Ovalbumin", "procedure": "as §2"}, "human MutSbeta [4]": {"target": "T1, human MutSbeta", "assay": "ADP Glo assay 1.1", "type": "biochemical", "details": "SPA buffer, no Ovalbumin; enzyme added to compounds before ATP; read-out: ADP Gol 1.1 assay IC50", "procedure": "as §2\nADP Glo assay 1.1: The ADP Glo 2.1 assay was adapted to enable assessment of a more direct interaction of the compound with the enzyme: (1) the SPA buffer was applied (25 mM HEPES pH=7.5, 150 mM KCl, 2 mM MgCl2, 2 mM GSH, 0.01% Tween-20) which contained no decoy Ovalbumin protein. (2) The order of reagent addition was changed, and enzyme was now added directly to the spotted compounds before addition of ATP."}, "human MutSbeta [5]": {"target": "T1, human MutSbeta", "assay": "P33 SPA", "type": "biochemical", "details": "ATP added to compounds first, then enzyme with DNA; 2 μM ATP, 7 nM enzyme, 60 min 37° C.", "procedure": "as §1"}}}
{"smiles": "CCN1CCN(c2nc(Nc3ccc(F)c(F)c3)c3nccnc3n2)CC1", "note": "[Compound 16, N-(3,4-difluorophenyl)-2-(4-ethylpiperazin-1-yl)pteridin-4-amine]", "values": [{"measurement": "IC50", "setting": "[1]", "value": "> 200", "unit": "µM"}, {"measurement": "IC50", "setting": "human MutSbeta [2]", "value": "> 200", "unit": "µM"}, {"measurement": "IC50", "setting": "human MutSα", "value": 42.7, "unit": "µM"}, {"measurement": "IC50", "setting": "human MutSbeta [3]", "value": "> 200", "unit": "µM"}, {"measurement": "IC50", "setting": "human MutSbeta [4]", "value": "> 200", "unit": "µM"}, {"measurement": "IC50", "setting": "human MutSbeta [5]", "value": 122, "unit": "µM"}]}
{"smiles": "Cc1cccc(Nc2nc(N3CCN(C)CC3)nc3nccnc23)c1", "note": "[Compound 6, 2-(4-methylpiperazin-1-yl)-N-(m-tolyl)pteridin-4-amine]", "values": [{"measurement": "IC50", "setting": "[1]", "value": "> 200", "unit": "µM"}, {"measurement": "IC50", "setting": "human MutSbeta [2]", "value": 41.5, "unit": "µM"}, {"measurement": "IC50", "setting": "human MutSbeta [3]", "value": 47.1, "unit": "µM"}, {"measurement": "IC50", "setting": "human MutSbeta [4]", "value": 82.1, "unit": "µM"}, {"measurement": "IC50", "setting": "human MutSbeta [5]", "value": 26.2, "unit": "µM"}]}
{"smiles": "Cc1ccc(Nc2nc(N3CCN(C)CC3)nc3nccnc23)cc1Cl", "note": "[Compound 20, N-(3-chloro-4-methyl-phenyl)-2-(4-methylpiperazin-1-yl)pteridin-4-amine]", "values": [{"measurement": "IC50", "setting": "[1]", "value": "> 200", "unit": "µM"}, {"measurement": "IC50", "setting": "human MutSbeta [2]", "value": 43.4, "unit": "µM"}, {"measurement": "IC50", "setting": "human MutSα", "value": 26.9, "unit": "µM"}, {"measurement": "IC50", "setting": "human MutSbeta [3]", "value": 140, "unit": "µM"}, {"measurement": "IC50", "setting": "human MutSbeta [4]", "value": 109, "unit": "µM"}, {"measurement": "IC50", "setting": "human MutSbeta [5]", "value": 12.9, "unit": "µM"}]}
{"smiles": "CCN1CCN(c2nc(Nc3ccc(F)c(C)c3)c3nccnc3n2)CC1", "note": "[Compound 3, 2-(4-ethylpiperazin-1-yl)-N-(4-fluoro-3-methyl-phenyl)pteridin-4-amine]", "values": [{"measurement": "IC50", "setting": "human MutSbeta [2]", "value": 24.5, "unit": "µM"}, {"measurement": "IC50", "setting": "human MutSα", "value": 42.3, "unit": "µM"}, {"measurement": "IC50", "setting": "human MutSbeta [3]", "value": 32.6, "unit": "µM"}, {"measurement": "IC50", "setting": "human MutSbeta [4]", "value": 42.5, "unit": "µM"}, {"measurement": "IC50", "setting": "human MutSbeta [5]", "value": 20.8, "unit": "µM"}]}
{"smiles": "CN1CCN(c2nc(NCc3ccccc3)c3nccnc3n2)CC1", "note": "[Compound 5, N-benzyl-2-(4-methylpiperazin-1-yl)pteridin-4-amine]", "values": [{"measurement": "IC50", "setting": "[1]", "value": "> 200", "unit": "µM"}, {"measurement": "IC50", "setting": "human MutSbeta [2]", "value": 44.8, "unit": "µM"}, {"measurement": "IC50", "setting": "human MutSα", "value": "> 200", "unit": "µM"}, {"measurement": "IC50", "setting": "human MutSbeta [3]", "value": 148, "unit": "µM"}, {"measurement": "IC50", "setting": "human MutSbeta [4]", "value": 63.4, "unit": "µM"}, {"measurement": "IC50", "setting": "human MutSbeta [5]", "value": 31, "unit": "µM"}]}
